Test results as given in patent publication US20070025991A1, “Use of antagonists of ghrelin or ghrelin receptor to treat intestinal inflammation” (priority 2003, published 2007).
Non-standard residues stand in square brackets, D forms with d. No end group written: not given here.

Assays:
[1] = test system: ghrelin-induced MAP kinase phosphorylation in IEC-GHS-R cells (rat GHS-R); experiment: MAP kinase phosphorylation in IEC-GHS-R cells (western blot, phospho-MAPK antibody); assay type: cell-based
Method: To examine whether an anti-ghrelin IgG or a GHS-R antagonist [D-lys-3]-GHRP-6 blocks ghrelin-mediated responses in experimental colitis, experiments were first performed to test the efficiency of these reagents using in vitro assays. Since ghrelin was previously shown to activate MAP kinase in human HepG2 cells, the effect of the anti-ghrelin antibody or [D-lys-3]-GHRP-6 on ghrelin-induced MAP kinase activation was determined. For these experiments, rat full-length GHS-R cDNA was cloned from rat brain RNA and then subcloned into the retroviral expression vector pMMP. The retroviruses expressing rat GHS-R were used to infect normal rat intestinal epithelial cell line IEC-6 cells (from ATCC). The resulting cell line was named IEC-GHS-R cells.
The response of the IEC-GHS-R to rat ghrelin was determined using this MAP kinase assay. Briefly, serum starved IEC-GHS-R cells were treated with ghrelin (10^−7 M) for various times. […]
To determine the effect of an anti-ghrelin IgG or a GHS-R antagonist [D-lys-3]-GHRP on ghrelin-induced MAPK phosphorylation, IEC-GHS-R cells were pretreated with the anti-ghrelin IgG (2 and 5 μg/ml) or with normal rabbit IgG or [D-lys-3]-GHRP-6 (1-20 nM) for 10 minutes and then treated with rat ghrelin for 5 minutes. MAP kinase phosphorylation was then determined.

[2] = test system: toxin A-induced intestinal fluid secretion; design: species or system mice; settings: mouse, in vivo, ip
GHS-R = molecular target: T1, GHS-R (Rattus norvegicus, UniProt O08725); settings: cited from earlier work
T1 construct: host or cells: CHO cells stably expressing rat GHS-R (inferred, same citation)

food intake = food intake induced by centrally injected ghrelin / GHS-R-induced; cited from earlier work
[3] = molecular target: human GHS-R with HA epitope (pMMP-HA-GHSR), transiently expressed in NCM460 cells (human) (UniProt Q92847); experiment: cell-based or functional assay
[4] = test system: IL-8 promoter activity in NCM460 cells expressing human GHS-R; experiment: IL-8 promoter-luciferase assay in GHS-R-expressing NCM460 cells; assay type: cell-based
Method: Construction of a reporter construct containing 1521 bp (nucleotides −1481 to +40) of the promoter region of human IL-8 gene has been described previously (Warny, M. et al., J. Clin. Invest., 105:1147-1156 (2000)). IL-8 reporter constructs containing mutations in NF-κB, AP-1 or C/EBP sites have been described previously (Zhao, D. et al., J. Biol. Chem., 276:44464-44471 (2001)). […] Firefly and Renilla luciferase activities in cell extracts were measured using Dual-Luciferase Reporter Assay System (Promega). The relative luciferase activity were then calculated by normalizing IL-8 promoter-driven Firefly luciferase activity to control Renilla luciferase activity. […]
NCM460 cells were transiently transfected with pMMP-HA-GHSR or a control plasmid pMMP-LacZ along with IL-8 promoter-luciferase construct plus an internal control construct. The transfected cells were stimulated with ghrelin for 6 hours and the IL-8 promoter activity was measured.
To examine whether ghrelin-induced IL-8 gene expression involves the NF-κB pathway, NCM-GHS-R cells were transiently transfected with IL-8-luciferase construct along with an internal control plasmid. […] IL-8 promoter activity was measured. […]

[5] = test system: IL-8 secretion in NCM-GHS-R cells; experiment: IL-8 secretion (ELISA) in NCM-GHS-R cells; assay type: cell-based, human; settings: serum starved NCM-GHS-R cells, ghrelin 10^−7 M, various times
[6] = test system: NCM460, HT29 and Caco-2 cells; experiment: IL-8 gene expression in colonic epithelial cell lines with endogenous ghrelin receptor; assay type: cell-based, human; settings: NCM460, HT29, Caco-2 with very low endogenous ghrelin receptor

human GHS-R with HA epitope (pMMP-HA-GHSR), transiently expressed in NCM460 cells (human), sequence (Q92847 whole entry): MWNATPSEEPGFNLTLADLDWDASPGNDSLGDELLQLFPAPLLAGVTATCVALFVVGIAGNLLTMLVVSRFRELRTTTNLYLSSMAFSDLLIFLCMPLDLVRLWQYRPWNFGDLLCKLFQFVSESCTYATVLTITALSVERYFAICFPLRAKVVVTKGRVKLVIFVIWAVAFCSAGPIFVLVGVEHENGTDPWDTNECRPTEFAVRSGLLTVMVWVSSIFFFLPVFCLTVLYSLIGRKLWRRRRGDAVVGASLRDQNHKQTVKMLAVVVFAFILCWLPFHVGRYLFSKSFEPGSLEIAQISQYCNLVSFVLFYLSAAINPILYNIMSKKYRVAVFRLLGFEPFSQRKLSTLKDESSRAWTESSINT
T1 sequence (O08725 whole entry): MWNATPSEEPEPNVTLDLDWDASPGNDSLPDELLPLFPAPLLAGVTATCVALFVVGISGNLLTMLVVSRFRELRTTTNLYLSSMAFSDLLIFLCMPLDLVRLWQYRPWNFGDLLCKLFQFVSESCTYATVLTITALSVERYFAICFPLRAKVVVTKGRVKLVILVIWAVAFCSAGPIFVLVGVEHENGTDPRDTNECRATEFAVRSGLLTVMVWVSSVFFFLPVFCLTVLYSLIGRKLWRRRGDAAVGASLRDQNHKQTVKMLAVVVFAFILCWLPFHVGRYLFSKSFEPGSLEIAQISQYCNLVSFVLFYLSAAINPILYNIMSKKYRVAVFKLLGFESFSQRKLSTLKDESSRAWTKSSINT

For “His-D-Trp-D-Lys-Trp-D-Phe-Lys-NH2 (H[dW][dK]W[dF]K-NH2; N-terminus assumed; SMILES NCCCC[C@H](NC(=O)[C@@H](Cc1ccccc1)NC(=O)[C@H](Cc1c[nH]c2ccccc12)NC(=O)[C@@H](CCCCN)NC(=O)[C@@H](Cc1c[nH]c2ccccc12)NC(=O)[C@@H](N)Cc1c[nH]cn1)C(N)=O) [[D-lys-3]-GHRP-6, commercially available hexapeptide ghrelin receptor (GHS-R) antagonist]”, the “inhibition of ghrelin-induced MAPK phosphorylation” value ([1]; pretreated 10 minutes (anti-ghrelin IgG 2 and 5 μg/ml; [D-lys-3]-GHRP-6 1-20 nM), then rat ghrelin 5 minutes) was “inhibited ghrelin-induced MAPK phosphorylation in a dose-dependent manner”, the “basal fluid secretion in buffer-exposed loops” value [2] was “no significant effect” and the “inhibition of toxin A-induced fluid secretion” value [2] was “approximately 50%”. For the same compound, the “block of GHS-R-induced calcium response” value (GHS-R) was “efficiently block” and the “block of food intake” value (food intake) was “efficiently block”.

In the case of “ghrelin (species not stated, used on human NCM460-derived cells) (peptide)”, the IL-8 promoter activity (luciferase reporter) [3] is reported as 8 fold.

For ghrelin, the MAP kinase phosphorylation ([1]; serum starved IEC-GHS-R cells, ghrelin 10^−7 M, various times) was “induces MAP kinase phosphorylation in a time-dependent manner”, the “stimulation of IL-8 promoter activity” value ([4]; NCM460 cells transiently transfected with pMMP-HA-GHSR, ghrelin for 6 hours) was “approximately 8 fold” and the “IL-8 secretion in conditioned media” value [5] was “significantly stimulates IL-8 secretion”. The “IL-8 gene expression on stimulation” value [6] was “does not mediate IL-8 gene expression”.

In the case of O=C(/C=C/c1ccc(O)c(O)c1)OCCc1ccccc1 [CAPE], the “inhibition of ghrelin-induced IL-8 promoter activity” value ([4]; NCM-GHS-R cells, 10 μg/ml CAPE 30 minutes pretreatment, ghrelin 10^−7 M 4 hours) is reported as “inhibited ghrelin-induced IL-8 promoter activity”.
